Measured values taken from patent publication US20240238299A1, “USE OF PYRROLOPYRIMIDINE COMPOUND” (GUANGZHOU JOYO PHARMATECH CO., LTD, priority 2021, published 2024).

Test system: IL-6-induced pSTAT1 in hPBMC
Assay: IL-6-induced pSTAT1 in hPBMC (flow cytometry, CD4 positive cells)
Assay type: cell-based
Settings: Homo sapiens, 10 ng/mL IL-6, CD4 positive cells
Experimental: • 1) Preparation of culture medium: 1640 medium+10% fetal bovine serum+1% penicillin/streptomycin+1% non-essential amino acids (all percentages were v/v) • 2) Cells were thawed in a 37° C. water bath and then centrifuged. The cell concentration was adjusted to 5×10^5 cells/mL using the prepared culture medium. • 3) Cell suspension was seeded into a 96-well round-bottom plate at 200 μL/well and incubated at 37° C. for 90 minutes. • 4) Drugs were added, followed by a 37° C. incubation for 30 minutes. • 5) Cells were then stimulated by adding 10 ng/mL of IL-6 or 4 ng/mL of IL-2, followed by a 37° C. incubation for 15 minutes.
• 1) After completing the stimulation, cells were centrifuged and washed once with staining buffer (DPBS+2% bovine serum albumin). Antibodies were then added for a 30-minute staining process at 4° C. […]
• 1) Response %=[(MFI value of drug-treated well−mean MFI value of control well)/(mean MFI value of DMSO well−mean MFI value of control well)]*100% was calculated. • 2) The calculated Response % values were input into GraphPad Prism 8 software. […]

Q: With `CN(c1ncnc2[nH]ccc12)[C@@H]1CCc2cc(C#N)nn2C1` [Compound I] as the molecule, how does the IC50 read?
A: 73.1 nM
